Measurements: US11453647B2, “Benzimidazole derivatives as adenosine receptor antagonists” (Merck Patent GmbH, priority 2017, dated 2022)
pIC50: −log10 of the molar value.

Experiments:
Type in all cases: cell-based
human A1 receptor = target: T1, human A1 receptor (Homo sapiens, UniProt P30542); test: functional cAMP (HTRF) assay, recombinant CHO cells expressing human A1 receptor, forskolin, agonist CPA
T1 construct: expressed in transfected cells; host or cells: CHO
T1 sequence (P30542 1-326): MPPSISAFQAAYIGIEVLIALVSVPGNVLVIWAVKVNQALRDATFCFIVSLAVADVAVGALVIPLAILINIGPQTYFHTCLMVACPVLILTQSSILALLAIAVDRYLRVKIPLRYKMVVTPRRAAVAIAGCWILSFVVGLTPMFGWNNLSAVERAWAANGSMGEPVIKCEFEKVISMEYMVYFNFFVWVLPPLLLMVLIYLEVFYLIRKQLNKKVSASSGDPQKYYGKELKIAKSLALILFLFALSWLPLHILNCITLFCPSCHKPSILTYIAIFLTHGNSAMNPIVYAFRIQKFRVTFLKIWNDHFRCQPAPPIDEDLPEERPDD
In short: (§1)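 Normalized HTRF cAMP signals (inhibitor and DMSO controls as references) were curve-fitted; assays used forskolin-stimulated CHO cells with A1 or A3, agonist CPA or IB-MECA respectively, 30 min compound incubation.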

A2B receptors = target: T2, A2B receptors (Homo sapiens, UniProt P29275); test: functional cAMP (HTRF) assay, recombinant HEK293 cells expressing human A2B receptor, agonist NECA; parameters: expressed in transfected cells; host or cells: HEK293
T2 sequence (P29275 1-332): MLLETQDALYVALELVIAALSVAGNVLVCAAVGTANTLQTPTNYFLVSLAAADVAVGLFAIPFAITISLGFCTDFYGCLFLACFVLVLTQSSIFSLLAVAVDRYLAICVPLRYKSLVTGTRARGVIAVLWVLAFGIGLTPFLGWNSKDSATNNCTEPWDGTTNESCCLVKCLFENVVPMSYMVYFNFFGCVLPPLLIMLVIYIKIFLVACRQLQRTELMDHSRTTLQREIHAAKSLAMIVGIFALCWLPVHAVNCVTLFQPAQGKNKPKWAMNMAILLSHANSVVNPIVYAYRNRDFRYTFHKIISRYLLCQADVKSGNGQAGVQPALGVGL

human A3 receptor = target: T3, human A3 receptor (Homo sapiens, UniProt P0DMS8); test: functional cAMP (HTRF) assay, recombinant CHO cells expressing human A3 receptor, forskolin, agonist IB-MECA
T3 construct: expressed in transfected cells; host or cells: CHO
T3 sequence (P0DMS8 1-318): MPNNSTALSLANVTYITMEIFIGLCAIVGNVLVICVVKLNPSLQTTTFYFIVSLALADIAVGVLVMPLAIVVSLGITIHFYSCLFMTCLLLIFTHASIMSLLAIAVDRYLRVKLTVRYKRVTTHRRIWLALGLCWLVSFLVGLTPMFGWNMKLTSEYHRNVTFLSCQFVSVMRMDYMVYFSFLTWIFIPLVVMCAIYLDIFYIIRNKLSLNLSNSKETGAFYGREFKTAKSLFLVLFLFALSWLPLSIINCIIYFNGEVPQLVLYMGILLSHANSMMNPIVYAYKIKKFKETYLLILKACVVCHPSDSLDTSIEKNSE
In short: as §1

human A2A receptor = target: T4, human A2A receptor (Homo sapiens, UniProt P29274); test: functional cAMP (HTRF) assay, recombinant HEK293 cells expressing human A2A receptor, agonist NECA
T4 construct: expressed in transfected cells; host or cells: HEK293
T4 sequence (P29274 whole entry): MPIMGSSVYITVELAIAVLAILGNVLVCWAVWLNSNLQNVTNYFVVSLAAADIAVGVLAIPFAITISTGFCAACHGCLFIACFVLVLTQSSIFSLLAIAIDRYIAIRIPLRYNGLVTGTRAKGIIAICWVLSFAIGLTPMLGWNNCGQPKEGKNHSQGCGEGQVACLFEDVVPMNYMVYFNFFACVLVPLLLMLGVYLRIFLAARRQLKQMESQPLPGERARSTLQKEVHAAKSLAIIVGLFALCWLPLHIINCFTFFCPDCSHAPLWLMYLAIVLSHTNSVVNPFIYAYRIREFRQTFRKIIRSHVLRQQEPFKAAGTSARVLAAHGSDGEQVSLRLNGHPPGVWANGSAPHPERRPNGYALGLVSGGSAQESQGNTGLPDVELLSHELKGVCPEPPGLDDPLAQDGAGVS

Structure (SMILES)	pIC50 (human A1 receptor)	pIC50 (A2B receptors)	pIC50 (human A3 receptor)	pIC50 (human A2A receptor)
COc1ccc(-c2ccccc2)c2nc(NC(=O)c3ccc(CN)cc3)[nH]c12 [compound 13, 4-Aminomethyl-N-(7-methoxy-4-phenyl-1H-benzoimidazol-2-yl)-benzamide]	< 6.00	> 6.00	> 6.00	> 8.00
COc1ccc(N2CCOCC2)c2nc(NC(=O)c3cnn(C(CO)CCl)c3)[nH]c12 (stereo not shown) [compound 86, 1-(1-chloro-3-hydroxypropan-2-yl)-N-[7-methoxy-4-(morpholin-4-yl)-1H-1,3-benzodiazol-2-yl]-1H-pyrazole-4-carboxamide]	< 6.00	< 6.00	< 6.00	> 8.00
C#CCC1(O)CCN(C(=O)Nc2nc3c(C4CCOCC4)ccc(OC)c3[nH]2)CC1 [compound 102, 4-hydroxy-N-[7-methoxy-4-(oxan-4-yl)-1H-1,3-benzodiazol-2-yl]-4-(prop-2-yn-1-yl)piperidine-1-carboxamide]	< 6.00	< 6.00	< 6.00	> 8.00
COc1ccc(C2CCOCC2)c2nc(NC(=O)N3CCC(O)(Cc4ccccc4)CC3)[nH]c12 [compound 103, 4-benzyl-4-hydroxy-N-[7-methoxy-4-(oxan-4-yl)-1H-1,3-benzodiazol-2-yl]piperidine-1-carboxamide]	> 6.00	> 6.00	< 6.00	> 8.00
COc1ccc(-c2cnn(CCC(C)C)c2)c2nc(NC(=O)N3CCC(C)(O)CC3)[nH]c12 [compound 151, 4-hydroxy-N-{7-methoxy-4-[1-(3-methylbutyl)-1H-pyrazol-4-yl]-1H-1,3-benzodiazol-2-yl}-4-methylpiperidine-1-carboxamide]	> 6.00	< 6.00	< 6.00	> 8.00
COc1ccc(C2CCCCC2)c2nc(NC(=O)N3CCC(C)(O)CC3)[nH]c12 [compound 16, 4-Hydroxy-4-methyl-piperidine-1-carboxylic acid (4-cyclohexyl-7-methoxy-1H-benzoimidazol-2-yl)-amide]	< 6.00	< 6.00	> 6.00	> 8.00
COCCn1cc(C(=O)Nc2nc3c(-c4ccc5[nH]nc(C)c5c4)ccc(OC)c3[nH]2)cn1 [compound 282, N-[7-methoxy-4-(3-methyl-1H-indazol-5-yl)-1H-1,3-benzodiazol-2-yl]-1-(2-methoxyethyl)-1H-pyrazole-4-carboxamide]	> 6.00	> 7.00	> 6.00	> 7.00
COc1ccc(-c2ccc(F)cc2)c2nc(NC(=O)c3cnn(C)c3)[nH]c12 [compound 318, N-[4-(4-fluorophenyl)-7-methoxy-1H-1,3-benzodiazol-2-yl]-1-methyl-1H-pyrazole-4-carboxamide]	> 7.00	> 8.00	> 7.00	> 8.00
COCCC1CCN(C(=O)Nc2nc3c(-c4cnn(C)c4)ccc(OC)c3[nH]2)C1 (stereo not shown) [compound 134, N-[7-methoxy-4-(1-methyl-1H-pyrazol-4-yl)-1H-1,3-benzodiazol-2-yl]-3-(2-methoxyethyl)pyrrolidine-1-carboxamide]	< 6.00	> 6.00	< 6.00	> 7.00
COc1ccc(C2CCOCC2)c2nc(NC(=O)c3ccnc(N4CC[C@@]5(CCOC5)C4)c3)[nH]c12 [compound 153, N-[7-methoxy-4-(oxan-4-yl)-1H-1,3-benzodiazol-2-yl]-2-[(5R)-2-oxa-7-azaspiro[4.4]nonan-7-yl]pyridine-4-carboxamide]	< 6.00	< 6.00	< 6.00	> 8.00
COc1ccc(-c2cnn(Cc3cccnc3)c2)c2[nH]c(NC(=O)N3CCC(C)(O)CC3)nc12 [compound 237, 4-hydroxy-N-(4-methoxy-7-{1-[(pyridin-3-yl)methyl]-1H-pyrazol-4-yl}-1H-1,3-benzodiazol-2-yl)-4-methylpiperidine-1-carboxamide]	> 6.00	> 7.00	> 6.00	> 7.00
COc1ccc(-c2cn[nH]c2)c2nc(NC(=O)N3CCC(C)(O)CC3)[nH]c12 [compound 79, 4-hydroxy-N-[7-methoxy-4-(1H-pyrazol-4-yl)-1H-1,3-benzodiazol-2-yl]-4-methylpiperidine-1-carboxamide]	< 6.00	> 6.00	< 6.00	> 7.00
COc1ccc(-c2cnn(C)c2)c2nc(NC(=O)c3ccc(N4C(=O)CCC4=O)cc3)[nH]c12 [compound 248, 4-(2,5-dioxopyrrolidin-1-yl)-N-[7-methoxy-4-(1-methyl-1H-pyrazol-4-yl)-1H-1,3-benzodiazol-2-yl]benzamide]	< 6.00	> 7.00	< 6.00	> 8.00
COc1ccc(-c2cnn(C)c2)c2nc(NC(=O)c3ccnc(N4CCC5(CCOC5)C4)c3)[nH]c12 (stereo not shown) [compound 106, N-[7-methoxy-4-(1-methyl-1H-pyrazol-4-yl)-1H-1,3-benzodiazol-2-yl]-2-{2-oxa-7-azaspiro[4.4]nonan-7-yl}pyridine-4-carboxamide]	< 6.00	< 6.00	> 6.00	> 8.00
COc1ccc(N2CCOCC2)c2nc(NC(=O)c3ccc(F)cc3)[nH]c12 [compound 63, 4-fluoro-N-[7-methoxy-4-(morpholin-4-yl)-1H-1,3-benzodiazol-2-yl]benzamide]	< 6.00	> 6.00	> 7.00	> 8.00
COc1ccc(-c2cccnc2)c2[nH]c(NC(=O)c3c[nH]cn3)nc12 [compound 268, N-[4-methoxy-7-(pyridin-3-yl)-1H-1,3-benzodiazol-2-yl]-1H-imidazole-4-carboxamide]	< 6.00	> 7.00	< 6.00	> 8.00
COc1ccc(C2CCOCC2)c2nc(NC(=O)c3ccnc(N4CCC(C)(O)C4)c3)[nH]c12 (stereo not shown) [compound 122, 2-(3-hydroxy-3-methylpyrrolidin-1-yl)-N-[7-methoxy-4-(oxan-4-yl)-1H-1,3-benzodiazol-2-yl]pyridine-4-carboxamide]	< 6.00	< 6.00	< 6.00	> 8.00
COCCn1cc(C(=O)Nc2nc3c(-c4ccnc5[nH]ccc45)ccc(OC)c3[nH]2)cn1 [compound 278, N-(7-methoxy-4-{1H-pyrrolo[2,3-b]pyridin-4-yl}-1H-1,3-benzodiazol-2-yl)-1-(2-methoxyethyl)-1H-pyrazole-4-carboxamide]	< 6.00	> 7.00	> 6.00	> 7.00
COCCn1cc(C(=O)Nc2nc3c(-c4cccc5[nH]ncc45)ccc(OC)c3[nH]2)cn1 [compound 279, N-[4-(1H-indazol-4-yl)-7-methoxy-1H-1,3-benzodiazol-2-yl]-1-(2-methoxyethyl)-1H-pyrazole-4-carboxamide]	> 6.00	> 7.00	> 6.00	> 7.00
COc1ccc(-c2cnn(C)c2)c2nc(NC(=O)c3cnc(C)s3)[nH]c12 [compound 165, N-[7-methoxy-4-(1-methyl-1H-pyrazol-4-yl)-1H-1,3-benzodiazol-2-yl]-2-methyl-1,3-thiazole-5-carboxamide]	> 6.00	> 6.00	> 8.00	> 8.00
COc1cc(F)c(C2=CCOCC2)c2nc(NC(=O)c3ccc(C(=O)N(C)C)cc3)[nH]c12 [compound 262, N4-[4-(3,6-dihydro-2H-pyran-4-yl)-5-fluoro-7-methoxy-1H-1,3-benzodiazol-2-yl]-N1,N1-dimethylbenzene-1,4-dicarboxamide]	< 6.00	> 8.00	> 6.00	> 8.00
COc1ccc(C2CCOCC2)c2nc(NC(=O)c3ccnc(N4CC[C@]5(CCOC5)C4)c3)[nH]c12 [compound 154, N-[7-methoxy-4-(oxan-4-yl)-1H-1,3-benzodiazol-2-yl]-2-[(5S)-2-oxa-7-azaspiro[4.4]nonan-7-yl]pyridine-4-carboxamide]	< 6.00	< 6.00	> 6.00	> 8.00
